{"source": "patent US11125659B2", "about": "“Preservative solution for heme protein, and method for stabilizing heme protein” (EIKEN KAGAKU KABUSHIKI KAISHA, priority 2015, dated 2021)", "test_system": "hemoglobin", "experiment": "Residual percentage of hemoglobin in buffer solution with additive after storage at 37° C., hemoglobin concentration by latex agglutination immunoassay (OC sensor DIANA)", "parameters": "species or system human", "settings": "for Residual percentage After 6 hours of storage / Residual percentage After 24 hours of storage: 37° C.; for effect of stabilizing hemoglobin (result in words): storage at 37° C., 6 and 24 hours, versus control sample; for residual percentages of hemoglobin after 6 hours of storage and after 24 hours of storage (result in words): stored at a high temperature of 37° C.", "experimental": "A solution (pH7.0) containing 0.3 w/v % bovine serum albumin, NaOH, 0.05 mol/L phosphate buffer solution as a buffer solution, and pure water as the remainder was prepared. 1,2-EDS as an additive was added, to the solution in such an amount as to give each concentration (0.01 to 0.2 mol/L) listed in Table 1, thereby preparing a solution at each concentration. Hemolytic hemoglobin was added to 10 mL of the prepared solutions in such an amount as to give a 600 ng/mL sample.\nImmediately after addition of hemoglobin, the hemoglobin concentration (concentration immediately after addition) of each sample was measured. Subsequently, each sample was stored at 37° C. With the time of adding hemoglobin designated as 0 hour of storage, hemoglobin concentration of each sample was measured after 6 hours of storage and after 24 hours of storage (concentration after 6 hours of storage and concentration after 24 hours of storage).\nHemoglobin concentration was measured using an OC sensor DIANA analyzer (Eiken Chemical Co., Ltd) and a dedicated reagent (OC-Hemodia Auto III: Eiken Chemical Co., Ltd) based on the measurement principle, a latex agglutination reaction; that is, a type of immunoassay method. Specifically, 35 μL of the sample was collected and used as a test solution, and then 60 μL of latex (latex solution sensitized with 20 vol % anti-human hemoglobin rabbit polyclonal antibody) and 300 μL of diluent (11.92 mg/mL HEPES) were added to the test solution, followed by measurement of absorbance at a wavelength of 660 nm. Based on a previously produced calibration curve, hemoglobin concentration in the test solution was determined from the thus obtained measurement value. Measurement was performed in triplicate for each sample, the mean value of the measurement results was employed as the hemoglobin concentration of each sample.\nFrom the thus measured hemoglobin concentrations, the residual percentages of hemoglobin were found based on the following formula.\nResidual percentage [%] of hemoglobin after 6 hours of storage or after 24 hours of storage=100×hemoglobin concentration [ng/mL] after 6 hours of storage or after 24 hours of storage/concentration [ng/mL] immediately after addition in control sample.\nSpecifically, the residual percentage of hemoglobin of each sample is a relative value with the hemoglobin concentration (immediately after addition) in a control sample designated as 100%. The control sample in this example was a phosphate buffer solution (containing no 1,2-EDS) containing bovine serum albumin and NaOH, and the concentration immediately after addition in the control sample was 583 ng/mL.\nSamples were prepared in a manner similar to Example 1 except that 0.05 mol/L N-(2-hydroxyethyl)piperazine-N′-ethanesulfonic acid (hereinafter, referred to as HEPES) was used instead of a phosphate buffer solution and that 1,2-EDS was added in such an amount as to give each concentration (0.005 to 0.2 mol/L) listed in Table 2, and then hemoglobin concentrations were measured. In addition, the residual percentage of each sample was represented by a relative value with the concentration immediately after addition (576 ng/mL) in a control sample (HEPES buffer solution (containing no 1,2-EDS) containing bovine serum albumin and NaOH) designated as 100%.\nSamples were prepared in a manner similar to Example 1 except that 0.05 mol/L HEPES, 0.05 mol/L piperazine-N,N′-bis(2-ethanesulfonic acid) (hereinafter, referred to as PIPES) or 0.05 mol/L 2-morpholinoethanesulfonic acid (hereinafter, referred to as MES) was used instead of a phosphate buffer solution, and that 1,2-EDS was added in such an amount as to give each concentration listed in Table 3, and then hemoglobin concentrations were measured. […]", "key": {"[1]": {"settings": "phosphate buffer pH7.0, additive 10 mM, relative to control immediately after addition (583 ng/mL)"}, "[2]": {"settings": "phosphate buffer, additive 50 mM, relative to phosphate control (548 ng/mL)"}, "[3]": {"settings": "HEPES buffer, additive 150 mM, relative to phosphate control (548 ng/mL)"}, "[4]": {"settings": "phosphate buffer, additive 150 mM, relative to phosphate control (548 ng/mL)"}, "[5]": {"settings": "HEPES buffer, additive 5 mM, relative to HEPES control (576 ng/mL)"}, "[6]": {"settings": "HEPES buffer, additive 10 mM, relative to HEPES control (576 ng/mL)"}, "[7]": {"settings": "HEPES buffer, additive 20 mM, relative to HEPES control (576 ng/mL)"}, "[8]": {"settings": "HEPES buffer, additive 20 mM, relative to phosphate control (583 ng/mL)"}, "[9]": {"settings": "HEPES buffer, additive 40 mM, relative to HEPES control (576 ng/mL)"}, "[10]": {"settings": "HEPES buffer, additive 60 mM, relative to HEPES control (576 ng/mL)"}, "[11]": {"settings": "HEPES buffer, additive 100 mM, relative to HEPES control (576 ng/mL)"}, "[12]": {"settings": "HEPES buffer, additive 150 mM, relative to HEPES control (576 ng/mL)"}, "[13]": {"settings": "HEPES buffer, additive 200 mM, relative to HEPES control (576 ng/mL)"}, "[14]": {"settings": "MES buffer, additive 20 mM, relative to phosphate control (583 ng/mL)"}, "[15]": {"settings": "PIPES buffer, additive 20 mM, relative to phosphate control (583 ng/mL)"}, "[16]": {"settings": "phosphate buffer, additive 20 mM, relative to control (583 ng/mL)"}, "[17]": {"settings": "phosphate buffer, additive 40 mM, relative to control (583 ng/mL)"}, "[18]": {"settings": "phosphate buffer, additive 60 mM, relative to control (583 ng/mL)"}, "[19]": {"settings": "phosphate buffer, additive 100 mM, relative to control (583 ng/mL)"}, "[20]": {"settings": "phosphate buffer, additive 150 mM, relative to control (583 ng/mL)"}, "[21]": {"settings": "phosphate buffer, additive 200 mM, relative to control (583 ng/mL)"}}}
{"smiles": "O=S(=O)(O)c1cccc2cccc(Nc3ccccc3)c12", "note": "[ANS, 8-anilino-1-naphthalenesulfonate, reference compound]", "values": [{"measurement": "Residual percentage After 6 hours of storage", "setting": "[1]", "result": 2.6, "unit": "%"}, {"measurement": "Residual percentage After 24 hours of storage", "setting": "[1]", "result": 2.5, "unit": "%"}]}
{"smiles": "O=S(=O)([O-])CCS.[Na+]", "note": "[MESS, sodium 2-mercaptoethanesulfonate, reference compound]", "values": [{"measurement": "Residual percentage After 6 hours of storage", "setting": "[1]", "result": 33.4, "unit": "%"}, {"measurement": "Residual percentage After 24 hours of storage", "setting": "[1]", "result": 3.3, "unit": "%"}]}
{"smiles": "O=S(=O)(O)c1ccc2cc(S(=O)(=O)O)ccc2c1", "note": "[2,6-NDS, 2,6-naphthalenedisulfonic acid]", "values": [{"measurement": "Residual percentage After 6 hours of storage", "setting": "[2]", "result": 55.7, "unit": "%"}, {"measurement": "Residual percentage After 24 hours of storage", "setting": "[2]", "result": 11.1, "unit": "%"}, {"measurement": "effect of stabilizing hemoglobin (result in words)", "result": "effect of stabilizing hemoglobin"}, {"measurement": "residual percentages of hemoglobin after 6 hours of storage and after 24 hours of storage (result in words)", "result": "high levels"}]}
{"smiles": "O=S(=O)(O)CCCCS(=O)(=O)O", "note": "[1,4-BDS, 1,4-butanedisulfonic acid]", "values": [{"measurement": "Residual percentage After 6 hours of storage", "setting": "[3]", "result": 74.7, "unit": "%"}, {"measurement": "Residual percentage After 24 hours of storage", "setting": "[3]", "result": 28.4, "unit": "%"}, {"measurement": "Residual percentage After 6 hours of storage", "setting": "[2]", "result": 68.3, "unit": "%"}, {"measurement": "Residual percentage After 24 hours of storage", "setting": "[2]", "result": 14.5, "unit": "%"}, {"measurement": "Residual percentage After 6 hours of storage", "setting": "[4]", "result": 69.9, "unit": "%"}, {"measurement": "Residual percentage After 24 hours of storage", "setting": "[4]", "result": 18.4, "unit": "%"}, {"measurement": "effect of stabilizing hemoglobin (result in words)", "result": "effect of stabilizing hemoglobin"}, {"measurement": "residual percentages of hemoglobin after 6 hours of storage and after 24 hours of storage (result in words)", "result": "high levels"}]}
{"smiles": "O=S(=O)(O)CCN1CCN(CCS(=O)(=O)O)CC1", "note": "[PIPES, piperazine-N,N′-bis(2-ethanesulfonic acid)]", "values": [{"measurement": "Residual percentage After 6 hours of storage", "setting": "[2]", "result": 58.4, "unit": "%"}, {"measurement": "Residual percentage After 24 hours of storage", "setting": "[2]", "result": 10.4, "unit": "%"}, {"measurement": "effect of stabilizing hemoglobin (result in words)", "result": "effect of stabilizing hemoglobin"}]}
{"smiles": "O=S(=O)(O)CCS(=O)(=O)O", "note": "[1,2-EDS, 1,2-ethanedisulfonic acid]", "values": [{"measurement": "Residual percentage After 6 hours of storage", "setting": "[5]", "result": 64.3, "unit": "%"}, {"measurement": "Residual percentage After 24 hours of storage", "setting": "[5]", "result": 14.0, "unit": "%"}, {"measurement": "Residual percentage After 6 hours of storage", "setting": "[6]", "result": 65.2, "unit": "%"}, {"measurement": "Residual percentage After 24 hours of storage", "setting": "[6]", "result": 16.6, "unit": "%"}, {"measurement": "Residual percentage After 6 hours of storage", "setting": "[7]", "result": 67.1, "unit": "%"}, {"measurement": "Residual percentage After 24 hours of storage", "setting": "[7]", "result": 18.1, "unit": "%"}, {"measurement": "Residual percentage After 6 hours of storage", "setting": "[8]", "result": 67.6, "unit": "%"}, {"measurement": "Residual percentage After 24 hours of storage", "setting": "[8]", "result": 20.2, "unit": "%"}, {"measurement": "Residual percentage After 6 hours of storage", "setting": "[9]", "result": 68.5, "unit": "%"}, {"measurement": "Residual percentage After 24 hours of storage", "setting": "[9]", "result": 19.7, "unit": "%"}, {"measurement": "Residual percentage After 6 hours of storage", "setting": "[10]", "result": 71.3, "unit": "%"}, {"measurement": "Residual percentage After 24 hours of storage", "setting": "[10]", "result": 20.8, "unit": "%"}, {"measurement": "Residual percentage After 6 hours of storage", "setting": "[11]", "result": 72.4, "unit": "%"}, {"measurement": "Residual percentage After 24 hours of storage", "setting": "[11]", "result": 21.6, "unit": "%"}, {"measurement": "Residual percentage After 6 hours of storage", "setting": "[12]", "result": 72.8, "unit": "%"}, {"measurement": "Residual percentage After 24 hours of storage", "setting": "[12]", "result": 20.4, "unit": "%"}, {"measurement": "Residual percentage After 6 hours of storage", "setting": "[13]", "result": 73.1, "unit": "%"}, {"measurement": "Residual percentage After 24 hours of storage", "setting": "[13]", "result": 21.8, "unit": "%"}, {"measurement": "Residual percentage After 6 hours of storage", "setting": "[14]", "result": 65.9, "unit": "%"}, {"measurement": "Residual percentage After 24 hours of storage", "setting": "[14]", "result": 18.7, "unit": "%"}, {"measurement": "Residual percentage After 6 hours of storage", "setting": "[15]", "result": 63.6, "unit": "%"}, {"measurement": "Residual percentage After 24 hours of storage", "setting": "[15]", "result": 14.3, "unit": "%"}, {"measurement": "Residual percentage After 6 hours of storage", "setting": "[1]", "result": 52.5, "unit": "%"}, {"measurement": "Residual percentage After 24 hours of storage", "setting": "[1]", "result": 7.5, "unit": "%"}, {"measurement": "Residual percentage After 6 hours of storage", "setting": "[16]", "result": 56.3, "unit": "%"}, {"measurement": "Residual percentage After 24 hours of storage", "setting": "[16]", "result": 9.0, "unit": "%"}, {"measurement": "Residual percentage After 6 hours of storage", "setting": "[17]", "result": 61.9, "unit": "%"}, {"measurement": "Residual percentage After 24 hours of storage", "setting": "[17]", "result": 12.8, "unit": "%"}, {"measurement": "Residual percentage After 6 hours of storage", "setting": "[18]", "result": 59.7, "unit": "%"}, {"measurement": "Residual percentage After 24 hours of storage", "setting": "[18]", "result": 12.3, "unit": "%"}, {"measurement": "Residual percentage After 6 hours of storage", "setting": "[19]", "result": 65.4, "unit": "%"}, {"measurement": "Residual percentage After 24 hours of storage", "setting": "[19]", "result": 16.6, "unit": "%"}, {"measurement": "Residual percentage After 6 hours of storage", "setting": "[20]", "result": 71.5, "unit": "%"}, {"measurement": "Residual percentage After 24 hours of storage", "setting": "[20]", "result": 24.3, "unit": "%"}, {"measurement": "Residual percentage After 6 hours of storage", "setting": "[21]", "result": 46.2, "unit": "%"}, {"measurement": "Residual percentage After 24 hours of storage", "setting": "[21]", "result": 7.9, "unit": "%"}, {"measurement": "effect of stabilizing hemoglobin (result in words)", "result": "effect of stabilizing hemoglobin"}, {"measurement": "residual percentages of hemoglobin after 6 hours of storage and after 24 hours of storage (result in words)", "result": "high levels"}]}
